Values joined by “and” are separate entries in the source; they are usually repeats but may differ in a detail not shown here. Equal values may be shown once. “Also recorded” adds a separate entry of the source. Read-outs that look alike come from different tables or passages of the source.
Columns and labels:
[1] = target: T1, PP2A Alpha/PP2R1A Complex (Homo sapiens, UniProt P67775); assay: Phosphatase panel, DiFMUP fluorescence assay; type: biochemical
T1 construct: purchased Recation Biology Inc
T1 sequence (P67775 whole entry): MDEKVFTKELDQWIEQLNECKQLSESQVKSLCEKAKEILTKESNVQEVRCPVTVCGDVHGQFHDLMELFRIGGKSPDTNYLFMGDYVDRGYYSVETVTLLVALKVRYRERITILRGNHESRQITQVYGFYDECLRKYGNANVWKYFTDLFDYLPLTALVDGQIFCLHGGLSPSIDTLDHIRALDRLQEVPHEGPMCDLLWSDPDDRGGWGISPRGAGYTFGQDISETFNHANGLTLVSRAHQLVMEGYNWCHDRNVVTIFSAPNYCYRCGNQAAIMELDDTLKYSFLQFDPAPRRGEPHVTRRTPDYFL
T1 sequence (P30153 whole entry partner): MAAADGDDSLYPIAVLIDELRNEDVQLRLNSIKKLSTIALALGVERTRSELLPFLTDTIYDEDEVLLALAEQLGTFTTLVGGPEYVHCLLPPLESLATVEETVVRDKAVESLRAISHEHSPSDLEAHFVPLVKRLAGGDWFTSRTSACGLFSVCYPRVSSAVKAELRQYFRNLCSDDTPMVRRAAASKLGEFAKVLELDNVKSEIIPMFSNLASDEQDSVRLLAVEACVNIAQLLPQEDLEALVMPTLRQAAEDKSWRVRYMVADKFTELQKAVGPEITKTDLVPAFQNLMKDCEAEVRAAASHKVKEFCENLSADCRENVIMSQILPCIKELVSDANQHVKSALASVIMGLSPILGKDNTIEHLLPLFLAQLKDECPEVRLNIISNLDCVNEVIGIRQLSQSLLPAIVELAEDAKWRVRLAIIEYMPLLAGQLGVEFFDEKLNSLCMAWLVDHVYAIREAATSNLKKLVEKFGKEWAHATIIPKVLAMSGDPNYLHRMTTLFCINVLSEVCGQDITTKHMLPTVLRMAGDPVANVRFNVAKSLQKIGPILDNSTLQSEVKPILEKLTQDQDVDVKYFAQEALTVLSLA

[2] = target: T2, PTPN7/LC-PTP (Homo sapiens, UniProt P35236); assay: Phosphatase panel, DiFMUP fluorescence assay; type: biochemical
T2 construct: purchased Recation Biology Inc
T2 sequence (P35236 1-360): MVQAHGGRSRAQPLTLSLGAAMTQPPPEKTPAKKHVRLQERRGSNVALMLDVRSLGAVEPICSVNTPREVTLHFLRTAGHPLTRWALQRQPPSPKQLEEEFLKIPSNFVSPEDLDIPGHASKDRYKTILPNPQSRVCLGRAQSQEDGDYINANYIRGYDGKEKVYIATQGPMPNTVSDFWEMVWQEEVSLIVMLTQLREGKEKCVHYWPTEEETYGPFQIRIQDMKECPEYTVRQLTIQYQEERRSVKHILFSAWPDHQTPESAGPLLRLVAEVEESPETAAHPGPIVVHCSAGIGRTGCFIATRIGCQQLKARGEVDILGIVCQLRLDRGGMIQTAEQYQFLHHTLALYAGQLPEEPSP

[3] = Weight loss in ad lib fed mice (about 50 grams), i.p. every other day; type: in vivo, male Swiss Webster mice; conditions: i.p. 10 mg/kg every other day, food ad lib
Source text: Food was provided ad lib.
By 27 days both sets of treated mice had lost about 10% of their starting body weight.

[4] = target: Tyrosine-protein phosphatase non-receptor type 11 (Homo sapiens, UniProt Q06124); assay: Phosphatase panel, DiFMUP fluorescence assay; type: biochemical
Tyrosine-protein phosphatase non-receptor type 11, sequence (Q06124 247-517): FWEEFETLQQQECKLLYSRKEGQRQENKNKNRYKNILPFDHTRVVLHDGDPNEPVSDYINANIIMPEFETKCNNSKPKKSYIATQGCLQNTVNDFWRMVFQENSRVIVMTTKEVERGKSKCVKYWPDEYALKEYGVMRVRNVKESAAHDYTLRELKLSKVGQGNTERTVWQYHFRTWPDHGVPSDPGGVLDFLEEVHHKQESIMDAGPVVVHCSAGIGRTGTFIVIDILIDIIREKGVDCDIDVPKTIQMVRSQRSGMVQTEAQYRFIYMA

[5] = Weight gain in growing male mice (about 25 grams); type: in vivo; conditions: similar dosing regimen, FIG. 2
Method: In a second experiment, growing male mice, about 25 grams, were administered either compound following a similar dosing regimen. As in the previous experiment, both compounds affected weight gain.

[6] = test system: hAPP-J20 mice; assay: Morris water maze, amyloid Alzheimer's model; type: in vivo; conditions: 2.5 mg/kg/wk i.p. over 6 weeks, vs vehicle treated littermates
Source text: The Morris water maze was used to test the effect of ENT-03 on spatial learning and memory deficits in 2 mouse models of familial Alzheimer's disease, hAPP-J20 mice that express a double mutant of the human amyloid precursor protein (Mucke et al., 2000), and PS19 mice that express the P301S mutant of the human microtubule associated protein tau (Yoshiyama et al., 2007).
hAPP-J20 mice expressing human APP bearing the Swedish and Indiana familial mutations (B6.Cg-Zbtb20Tg(PDGFB-APPSwInd)20Lms/2Mmjax, (Mucke et al., 2000)) and PS19 mice expressing the P301S mutation of human tau protein (B6;C3-Tg(Prnp-MAPT*P301S)PS19Vle/J (Yoshiyama et al., 2007)) were purchased from Jackson laboratories and maintained as colonies in the animal facility of the University of Ottawa. Heterozygous hAPP-J20 and PS19 mice were used. Genotypes were verified by PCR using genomic DNA isolated from tail or ear biopsies. […]
The Morris water maze test to analyze the ability of mice to learn and remember the location of a submerged platform in a pool containing opaque water was conducted in the Faculty of Medicine Behavior Core Laboratory at the University of Ottawa. […] On the probe day, crossings of the platform area and target quadrant were counted and swimming speed was measured using Ethovision automated video tracking software (Noldus).

[7] = Weight loss, i.p. once weekly over 6 weeks (FIG. 1C); type: in vivo, C57bl/6 male mice; conditions: intraperitoneal once weekly over 6 weeks
[8] = Pharmacokinetic profile, intravenous administration; type: in vivo, male SD Rats; conditions: I.V. 5 mg/kg, plasma; for MRT inf: read-out: MRTInf_obs
Method: The objective of this example was to determine the pharmacokinetic profile of ENT-03 (Compound III) via intravenous and oral administration in male SD Rats.
Animal feeding control: Animals were food fasted overnight prior to dosing and fed 4 hours after administration having free access to water.
PK Sample Analyses: Concentrations of ENT-03 (Compound III) in the plasma and dose samples were analyzed using a LC-MS/MS method. WinNonlin (Phoenix™, version 6.1) or other similar software was used for pharmacokinetic calculations. The following pharmacokinetic parameters were calculated, whenever possible from the plasma concentration versus time data.
IV Bolus administration: T1/2, C0, AUClast, AUCinf, MRTinf, Cl, Vss, Number of Points for Regression.
The pharmacokinetic data was described using descriptive statistics such as mean and standard deviation. All the residual biological samples were retained in the freezer ([…]) for a period of 6 months after testing.

[9] = Table 19A, read-out: inhibitory activity PP2A Alpha/PP2R1A Complex
[10] = Table 19B, read-out: inhibitory activity PTPN7/LC-PTP
[11] = Table 5B, read-out: Compound IC50 (M) PP2A Alpha/PP2R1A Complex
[12] = Table 5C, read-out: Compound IC50 (M) PTPN7/LC-PTP
[13] = individual rats (Rat 1-3), listed as ENT-03 (Compound III), 5 mg/kg
[14] = male, SD, rat, iv, 5 mg/kg, Mean
[15] = male, SD, rat, iv, 5 mg/kg, individual rats (Rat 1-3)

For `CC(CCC[C@@H](C)[C@H]1CCC2C3C(CC[C@@]21C)[C@@]1(C)CC[C@H](NCCCNCCCCN)C[C@@H]1C[C@H]3O)C(=O)O` (single isomer, unassigned) [ENT-06], which IC50 [1, 9] is on record?
The IC50 was > 0.0001 M.

What about the IC50 [2, 10] of the same compound?
Its IC50 is 1.05e-06 M.

What does the source list for `CC(C)[C@@H](CC[C@@H](C)[C@H]1CC[C@H]2[C@@H]3[C@H](O)C[C@H]4C[C@@H](NCCCNCCCCNCCCN)CC[C@]4(C)[C@H]3CC[C@]12C)OS(=O)(=O)O` (single isomer, unassigned) [ENT-02 (MSI-1436), trodusquemine]?
effect on weight [3]: more severe decline; IC50 [4]: 0.375 µM; effect on growth / weight gain [5]: suppressed growth as well as having induced consumption of body fat; IC50 [1, 11]: 5.72e-05 M; IC50 [2, 12]: 1.65e-06 M

With `CC(CCC[C@@H](C)[C@H]1CCC2C3C(CC[C@@]21C)[C@@]1(C)CC[C@H](NCCCNCCCCNCCCN)C[C@@H]1C[C@H]3O)C(=O)O` (single isomer, unassigned) [ENT-03] as the compound, how does the “effect on weight” value [3] read?
Its value is “weight loss with kinetics similar to that seen following administration of ENT-02”.

And the “gradual recovery to the starting weight by” value [3]?
Its value is ~45 days.

What about the “nadir of weight decrease” value [3] of the same compound?
The value was ~16 days.

What about the “starting body weight lost by 27 days” value [3] of the same compound?
Its value is “about 10%”.

And the “learning during the training phase (latency to find the hidden platform)” value [6]?
The value was “improved; also recorded: decreased the latency to find the hidden platform”.

What about the “memory on the probe day (platform area crossings, time in platform area)” value [6] of the same compound?
Its value is “improved memory”.

What about the IC50 [4] of the same compound?
The IC50 was 5 µM.

What about the “effect on growth / weight gain” value [5] of the same compound?
Its value is “continued normal growth”.

And the “clinical appearance other than weight loss” value [7]?
Its value is “appeared clinically normal”.

What about the “effect on weight” value [7] of the same compound?
The value was “dose dependent weight loss”.

And the “activity at PP2 Å alpha” value [1]?
Its value is “inactive”.

What about the IC50 [1, 11] of the same compound?
The IC50 was > 0.0001 M.

What about the IC50 [1, 9] of the same compound?
Its IC50 is > 0.0001 M.

What about the IC50 [2, 12] of the same compound?
The IC50 was 6.34e-07 M.

What about the IC50 [2, 10] of the same compound?
Its IC50 is 6.34e-07 M.

What about the AUC_%Extrap_obs ([8]; Mean) of the same compound?
Its AUC_%Extrap_obs is 38.2%.

And the AUClast/D ([8]; Mean)?
Its AUClast/D is 122000 h·ng/mL per mg/kg.

What about the Cl_obs ([8]; Mean) of the same compound?
Its Cl_obs is 5.1 mL/h/kg.

And the Vss_obs ([8]; Mean)?
Its Vss_obs is 0.125 L/kg.

What about the AUCInf [8, 13] of the same compound?
Its AUCInf is 941.13 µg·h/mL and 1095.763 µg·h/mL.

What about the AUC_%Extrap_obs [8, 13] of the same compound?
Its AUC_%Extrap_obs is 39.6% and 35.4% and 39.7%.

And the AUClast [8, 13]?
Its AUClast is 608.321 µg·h/mL and 661.154 µg·h/mL.

What about the AUClast/D [8, 13] of the same compound?
The AUClast/D was 112000 h·ng/mL per mg/kg and 122000 h·ng/mL per mg/kg and 132000 h·ng/mL per mg/kg.

What about the C0 [8, 13] of the same compound?
The C0 was 102.409 µg/mL and 76.2 µg/mL.

And the Cl_obs [8, 13]?
The Cl_obs was 5.42 mL/h/kg and 5.31 mL/h/kg and 4.57 mL/h/kg.

And the MRTInf_obs [8, 13]?
The MRTInf_obs was 22.9 h and 25.5 h.

What about the T1/2 [8, 13] of the same compound?
The T1/2 was 17.5 h and 18.6 h.

And the Vss_obs [8, 13]?
Its Vss_obs is 0.137 L/kg and 0.122 L/kg and 0.116 L/kg.

What about the AUC(0-inf) [8, 14] of the same compound?
The AUC(0-inf) was 986 µg·h/mL.

And the AUC(0-t) [8, 14]?
Its AUC(0-t) is 609 µg·h/mL.

What about the half-life [8, 14] of the same compound?
Its half-life is 18.2 h.

What about the C0 ([8]; male, SD, rat, iv, 5 mg/kg, Mean, read-out: C0) of the same compound?
The C0 was 86.3 µg/mL.

What about the MRT inf [8, 14] of the same compound?
Its MRT inf is 24.6 h.

And the AUC(0-inf) [8, 15]?
Its AUC(0-inf) is 922 µg·h/mL.

And the AUC(0-t) [8, 15]?
The AUC(0-t) was 558 µg·h/mL.

And the half-life [8, 15]?
The half-life was 18.6 h.

And the C0 ([8]; male, SD, rat, iv, 5 mg/kg, individual rats (Rat 1-3), read-out: C0)?
Its C0 is 80.4 µg/mL.

And the MRT inf [8, 15]?
Its MRT inf is 25.3 h.

What does the source list for `CC(CCC[C@@H](C)[C@H]1CCC2C3C(CC(O)[C@@]21C)[C@@]1(C)CC[C@H](NCCCNCCCCN)C[C@@H]1C[C@H]3O)C(=O)O` (single isomer, unassigned) [ENT-05]?
IC50 ([1]; Table 18A, read-out: inhibitory activity PP2A Alpha/PP2R1A Complex): 3.8e-06 M; IC50 ([2]; Table 18B, read-out: inhibitory activity PTPN7/LC-PTP): 3.97e-06 M
